Results: ChEMBL document CHEMBL1201862, “PubChem BioAssay data set” (2004)
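How tested: cells in 96-well plates exposed to compound for 48 hours at five concentrations. GI50 is the concentration that inhibits growth by half.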 Calls of active or inactive are those of the source. No stated cut-off is given here; in the data, active = GI50 up to about 1.1 µM and inactive = higher.

Columns and labels:
Experiment in all cases: NCI-60 cell line screen, 48 h
[1] = system: MDA-MB-435
[2] = system: NCI-H460
[3] = system: DU-145
[4] = system: M14
[5] = system: NCI/ADR-RES
[6] = system: HCC 2998
[7] = system: SNB-75
[8] = system: CAKI-1
[9] = system: PC-3
[10] = system: OVCAR-3
[11] = system: OVCAR-5
[12] = system: COLO 205
[13] = system: OVCAR-4
[14] = system: A498
[15] = system: ACHN
[16] = system: OVCAR-8
[17] = system: SNB-19
[18] = system: RXF 393
[19] = system: SF-268
[20] = system: HL-60

| Compound | GI50 [1] | GI50 [2] | GI50 [3] | GI50 [4] | GI50 [5] | GI50 [6] | GI50 [7] | GI50 [8] | GI50 [9] | GI50 [10] | GI50 [11] | GI50 [12] | GI50 [13] | GI50 [14] | GI50 [15] | GI50 [16] | GI50 [17] | GI50 [18] | GI50 [19] | GI50 [20] |
| --- | --- | --- | --- | --- | --- | --- | --- | --- | --- | --- | --- | --- | --- | --- | --- | --- | --- | --- | --- | --- |
| O=C1C=CC2(C=C1)CCC(=O)O2 | 15.5 µM (inactive) | 14.3 µM (inactive) | 15.5 µM (inactive) | 29.2 µM (inactive) | 32.9 µM (inactive) | 14.2 µM (inactive) | 19 µM (inactive) | 5.87 µM (inactive) | 12.6 µM (inactive) | 13.2 µM (inactive) | 22.7 µM (inactive) | 11 µM (inactive) | 14.8 µM (inactive) | 36.3 µM (inactive) | 15.2 µM (inactive) | 16.2 µM (inactive) | 17.5 µM (inactive) | 14.6 µM (inactive) | 12.1 µM (inactive) | – |
| O=C(/C=C1/Nc2ccc([N+](=O)[O-])cc2N/C1=C/C(=O)c1ccc(Cl)cc1)c1ccc(Cl)cc1 | > 100 µM (inactive) | 42.9 µM (inactive) | > 100 µM (inactive) | > 100 µM (inactive) | 43.2 µM (inactive) | > 100 µM (inactive) | > 100 µM (inactive) | > 100 µM (inactive) | 41.4 µM (inactive) | 80.2 µM (inactive) | > 100 µM (inactive) | > 100 µM (inactive) | > 100 µM (inactive) | 10.1 µM (inactive) | > 100 µM (inactive) | 54.8 µM (inactive) | > 100 µM (inactive) | 66.5 µM (inactive) | 60.5 µM (inactive) | – |
| COc1ccc2nc3c([N+](=O)[O-])ccc4c3c(c2c1)N=CN4CCN(C)C | 6.67 µM (inactive) | 2.96 µM (inactive) | 4.09 µM (inactive) | 4.8 µM (inactive) | 3.18 µM (inactive) | 3.83 µM (inactive) | 2.9 µM (inactive) | 1.36 µM (inactive) | 4.65 µM (inactive) | 4.55 µM (inactive) | 6.7 µM (inactive) | 2.34 µM (inactive) | 9.02 µM (inactive) | 4.16 µM (inactive) | 3.66 µM (inactive) | 2.82 µM (inactive) | 6.85 µM (inactive) | – | 4.09 µM (inactive) | 0.266 µM (active) |
| CSc1nc(Cl)c2c(n1)Sc1nc3ccccc3n1N=C2 | 29.7 µM (inactive) | 56 µM (inactive) | > 100 µM (inactive) | 21 µM (inactive) | 21.7 µM (inactive) | 26.5 µM (inactive) | 25.9 µM (inactive) | 13.4 µM (inactive) | 22.3 µM (inactive) | 25.5 µM (inactive) | 28.9 µM (inactive) | 23 µM (inactive) | 29.4 µM (inactive) | > 100 µM (inactive) | 23.7 µM (inactive) | 19.1 µM (inactive) | > 100 µM (inactive) | 22.6 µM (inactive) | 31 µM (inactive) | – |
| CCCNC(=O)N(C)C(=O)N1N=C(c2ccccc2)C1c1ccccc1 (centres undefined) | 95.7 µM (inactive) | – | > 100 µM (inactive) | > 100 µM (inactive) | > 100 µM (inactive) | 60 µM (inactive) | 54.3 µM (inactive) | 75.3 µM (inactive) | 56.9 µM (inactive) | 61.7 µM (inactive) | – | 54.2 µM (inactive) | 46.1 µM (inactive) | > 100 µM (inactive) | 90.6 µM (inactive) | 55.7 µM (inactive) | > 100 µM (inactive) | > 100 µM (inactive) | – | – |
| CNC(=O)Oc1ccc(C(=S)Nc2ccc(Br)cc2)cc1 | 21.8 µM (inactive) | – | 26.5 µM (inactive) | 18.1 µM (inactive) | 17.6 µM (inactive) | 17.8 µM (inactive) | – | 17.8 µM (inactive) | 23.8 µM (inactive) | 19.7 µM (inactive) | 25.4 µM (inactive) | 18.2 µM (inactive) | 18.5 µM (inactive) | 18.4 µM (inactive) | 24.4 µM (inactive) | 7.98 µM (inactive) | 36.3 µM (inactive) | – | 9.55 µM (inactive) | 2.1 µM (inactive) |
| O=C(O)C/N=C(\C(=N\CC(=O)O)c1ccccc1)c1ccccc1 | > 100 µM (inactive) | > 100 µM (inactive) | > 100 µM (inactive) | > 100 µM (inactive) | > 100 µM (inactive) | > 100 µM (inactive) | > 100 µM (inactive) | > 100 µM (inactive) | > 100 µM (inactive) | > 100 µM (inactive) | > 100 µM (inactive) | > 100 µM (inactive) | > 100 µM (inactive) | > 100 µM (inactive) | > 100 µM (inactive) | > 100 µM (inactive) | > 100 µM (inactive) | > 100 µM (inactive) | > 100 µM (inactive) | – |
| CC(=O)NC1C(OC(C)C(=O)NC(C)C(=O)NC(CCC(=O)NCCCCCNc2ccc([N+](=O)[O-])c3[nH]c4ccccc4c(=O)c23)C(N)=O)C(O)C(CO)OC1(C)OCc1ccccc1 (centres undefined) | > 100 µM (inactive) | 26.7 µM (inactive) | 64.6 µM (inactive) | > 100 µM (inactive) | > 100 µM (inactive) | > 100 µM (inactive) | > 100 µM (inactive) | > 100 µM (inactive) | > 100 µM (inactive) | > 100 µM (inactive) | > 100 µM (inactive) | > 100 µM (inactive) | > 100 µM (inactive) | > 100 µM (inactive) | > 100 µM (inactive) | 71.6 µM (inactive) | > 100 µM (inactive) | 87.1 µM (inactive) | > 100 µM (inactive) | – |
| COc1cc2c(cc1OCCCCCN1C(=O)c3cccc4cccc(c34)C1=O)N=C[C@@H]1CCCN1C2=O | 0.167 µM (active) | 0.316 µM (active) | 0.255 µM (active) | 0.24 µM (active) | 0.421 µM (active) | 0.3 µM (active) | 0.34 µM (active) | 0.208 µM (active) | 0.282 µM (active) | 0.184 µM (active) | 0.406 µM (active) | 0.28 µM (active) | 0.248 µM (active) | 0.31 µM (active) | 0.167 µM (active) | 0.281 µM (active) | 0.327 µM (active) | 0.0647 µM (active) | 0.207 µM (active) | – |
| CSc1n[nH]c2[nH]nc(C)c12 | > 100 µM (inactive) | > 100 µM (inactive) | > 100 µM (inactive) | > 100 µM (inactive) | > 100 µM (inactive) | > 100 µM (inactive) | > 100 µM (inactive) | > 100 µM (inactive) | > 100 µM (inactive) | > 100 µM (inactive) | > 100 µM (inactive) | > 100 µM (inactive) | > 100 µM (inactive) | > 100 µM (inactive) | > 100 µM (inactive) | > 100 µM (inactive) | > 100 µM (inactive) | > 100 µM (inactive) | > 100 µM (inactive) | – |
| Cn1c(=O)nc2n(CCO)ccnc-2c1=O | > 100 µM (inactive) | > 100 µM (inactive) | > 100 µM (inactive) | > 100 µM (inactive) | > 100 µM (inactive) | > 100 µM (inactive) | > 100 µM (inactive) | > 100 µM (inactive) | > 100 µM (inactive) | > 100 µM (inactive) | > 100 µM (inactive) | > 100 µM (inactive) | > 100 µM (inactive) | > 100 µM (inactive) | > 100 µM (inactive) | > 100 µM (inactive) | > 100 µM (inactive) | > 100 µM (inactive) | > 100 µM (inactive) | – |
